Measured values: article PMC6162693, “Investigation into the Thermal Response and Pharmacological Activity of Substituted Schiff Bases on α-Amylase and α-Glucosidase” (Antioxidants, 2018)
≈ marks a conversion by molar mass, not a printed value. Like-named read-outs stand apart in the source and are kept apart here.

Key:
[1] = DPPH radical scavenging activity; conditions: absorbance at 517 nm, 30 min; mean ± SD (n = 3)
Protocol: (§1) The antioxidant activities of Schiff bases (1–9) were determined by DPPH, ABTS^+, H2O2, ferric reducing power assays, and compared with 3,4,5-trihydroxybenzoic acid (10), 5-(1,2-dihydroxyethyl)-3,4-dihydroxyfuran-2(5H)-one (11), and 2-(3,4-dihydroxyphenyl)-3,5,7-trihydroxy-4H-chromen-4-one (12) (as controls).
The scavenging activity of compounds (1–12) was evaluated by adding an ethanolic solution of DPPH (300 μL, 0.05 mM) and incubated for 30 min in the dark. After that, changes in the absorbance of the mixture were measured at 517 nm on a UV-Vis spectrophotometer. The percentage radical scavenging activities (%RSA) and half maximal inhibitory concentration (IC50) of the compounds were estimated from Equation (2) and by linear regression analysis, respectively. All studies were carried out in triplicate. (2) % RSA= 100⌊(Abs. of DPPH − Abs. of test compound)/(Abs. of DPPH)⌋

[2] = ABTS radical cation decolourisation assay; conditions: absorbance at 734 nm, 30 min; mean ± SD (n = 3)
Protocol: as §1
A mixture of ABTS (960.2 mg) and potassium persulphate (165.6 mg) was dissolved in 250 mL of distilled water to generate the blue-green ABTS^+ solution. The ABTS solution was stored away in the dark at ambient temperature for 24 h to generate sufficient ABTS radical cation (ABTS^+), then the absorbance was adjusted to 0.9547 with distilled water. Precisely 40 µL solution of the compounds were added to 3 mL ABTS^+ solution and incubated at 298 K for 30 min in the dark. Changes in concentration of ABTS^+ were measured at 734 nm on a spectrophotometer. The degree of ABTS^+ decolourisation was a template for evaluating the percentage proton-donating potential (%PDP) of the test compounds [24]; estimated from Equation (3). The IC50 (μM) of the compounds were determined by linear regression analysis, and all analyses were carried out in triplicate. (3) % PDP = 100⌊(Abs. of ABTS ^+ − Abs. of test compound)/(Abs. of ABTS^+)⌋

[3] = H2O2-scavenging activity; conditions: absorbance at 230 nm; mean ± SD (n = 3)
Protocol: as §1
According to the methods of Ruch et al., the H2O2 scavenging activity of compounds (1–12) was evaluated. To 100 µL aliquot of the test compounds was added 0.4 mL of 50 mM phosphate buffer followed by 0.6 mL of 2 mM H2O2 solution prepared in 50 mM phosphate buffer (pH 6.8). The absorbance of the mixture was measured at 230 nm, thereafter, the %H2O2 scavenging activity (Equation (4)) and IC50 (μM) of the compounds 1–12 was determined. All analyses were carried out in triplicate. (4) % H2O2 − scavenging activity = 100⌊(Abs. of H2O2 − Abs. of test compound)/(Abs. of H2O2)⌋

[4] = test system: Staphylococcus aureus; test: Broth microdilution antimicrobial assay, S. aureus; format: cell-based; conditions: Staphylococcus aureus, read-out: MBC S. aureus
Protocol: (§2) Exactly 1.5 mg of sodium;10-oxido-7-oxophenoxazin-10-ium-3-olate was dissolved in 100 mL of distilled water, vortexed, filtered, sterilised, and stored at 4 °C for a maximum of 14 days before being applied as a growth indicator. 1000 μM stock solution of Schiff bases (1–9) was prepared in DMSO.
(§3) Fungi (Aspergillus niger, Candida albicans), Gram-positive bacteria (Staphylococcus aureus, Enterococcus faecalis), and Gram-negative bacteria (Salmonella typhi, Escherichia coli).
(§4) Colonies from a 24 h culture agar plate were collected with a loop and transferred to a tube containing lysogeny broth (LB). The various suspensions were incubated at 37 °C and the size adjusted to 1.5 × 10^6 CFU/mL [27].
(§5) The antimicrobial activity of Schiff bases (1–9), was evaluated using 96-well broth microdilution method as described by de Rapper et al. (2013) and Akhalwaya et al. (2018) with slight modifications. Columns 1–11 was filled 50 µL LB, followed by the addition of 50 µL of Schiff base to column 1. Thereafter, 50 µL of Schiff bases from column 1 was transferred by multichannel pipette to columns 2–10, resulting in 50 µL Schiff bases per well. Column 11 contained 100 µL of diluted standardised inoculum, while Column 12 contained 100 µL of LB as a control to monitor sterility. Then, 50 µL of the microorganism suspension was then added to columns 1–10 and the control column 11. The plates were incubated at 37 °C for 24 h, followed by the addition of 30 µL of growth indicator solution and further incubated for 2 h for the observation of colour change. On completion of incubation, the columns with blue indicator colour were reported as the MIC (µM) values. The columns with a concentration higher than the MIC value were plated on nutrient agar to determine the minimum bactericidal and fungicidal concentrations.

[5] = test system: Enterococcus faecalis; test: Broth microdilution antimicrobial assay, E. faecalis; format: cell-based; conditions: Enterococcus faecalis, read-out: MBC E. faecalis
Protocol: as §2, §3, §4, §5

[6] = test system: Escherichia coli; test: Broth microdilution antimicrobial assay, E. coli; format: cell-based; conditions: Escherichia coli, read-out: MBC E. coli
Protocol: as §2, §3, §4, §5

[7] = test system: Salmonella typhi; test: Broth microdilution antimicrobial assay, S. typhi; format: cell-based; conditions: for MBC: Salmonella enterica, TYPHI, read-out: MBC S. typhi
Protocol: as §2, §3, §4, §5

[8] = test system: Aspergillus niger; test: Broth microdilution antimicrobial assay, A. niger; format: cell-based
Protocol: as §2, §3, §4, §5

[9] = test system: Candida albicans; test: Broth microdilution antimicrobial assay, C. albicans; format: cell-based
Protocol: as §2, §3, §4, §5

[10] = molecular target: α-glucosidase; test: α-Glucosidase inhibitory activity; format: biochemical; conditions: Means ×10^2 ± SD from at least three experiments
Protocol: The inhibitory activity of Schiff bases (1-9) against α-glucosidase was assessed by the method previously described by […] et al. […] Then, approximately 0.2 mL of Schiff base solution was mixed with 1.0 mL of 50 mM sodium phosphate buffer (pH 6.9) and 50 μL of α-glucosidase solution (2 U/mL). Thereafter, incubated at 37 °C for 10 min, followed by the addition of exactly 50 μL of 0.7 mM p-nitrophenyl-α-D-glucopyranoside solution in 50 mM sodium phosphate buffer (pH 6.9) and further incubated for 30 min at 37 °C. The reaction was terminated by the addition of 2.0 mL solution of 0.5 M Na2CO3. 0.3 mL aliquot of the above mixture was mixed with 4.7 mL of distilled water and the absorbance measured at 405 nm. […] (6) α - glucosidase inhibition (%) = (Ae - ASB/Ae)100 where Ae is the absorbance of the enzyme solution after incubation and ASB is the absorbance after incubation of Schiff bases solution. The assay was performed in triplicate.

[11] = molecular target: α-amylase; test: α-Amylase inhibitory activity; format: biochemical; conditions: Means ×10^2 ± SD from at least three experiments
Protocol: The α-amylase inhibitory activity of Schiff bases (1–9) was evaluated by the method reported by Xiao et al. with slight modifications. Substrate solution is prepared by dissolving 1.0 g of starch in 50 mL of 0.4 M NaOH and heated at 100 °C for 5 min. The substrate solution was adjusted to a neutral pH by the addition of 0.1 M HCl, cooled on crushed ice and made to 100 mL in a standard volumetric flask with distilled water. […] Using a microplate, 40 μL substrate and 20 μL Schiff base solution were mixed, then preincubated at 37 °C for 3 min. Thereafter, 20 μL of 50 μg/mL α-amylase solution was dispensed into each well, and further incubated for 15 min. The reaction was terminated by the addition of 80 μL HCl (0.1 M); followed by 200 μL of 1 mM iodine solution, and the absorbances measured at 650 nm. Inhibitory activity was calculated from Equation (5):(5) α − amylase inhibition (%) = (A2 − A1/A4 − A3)100 where A1 is the absorbance of Schiff base, starch, and α-amylase solution after incubation, A2 is the absorbance of Schiff base and starch solution after incubation, A3 is the absorbance of starch and amylase solution after incubation, and A4 is the absorbance of a starch solution after incubation. Thereafter, the IC50 value was determined from the plot of % inhibition versus concentration.

[12] = test system: Fungi (Aspergillus niger, Candida albicans); test: Broth microdilution MIC, antifungal (fungus not specified); format: cell-based; conditions: read-out: MIC (antifungal)
Protocol: as §2, §3, §4
The antimicrobial activity of Schiff bases (1–9), was evaluated using 96-well broth microdilution method as described by de Rapper et al. (2013) and Akhalwaya et al. (2018) with slight modifications. Columns 1–11 was filled 50 µL LB, followed by the addition of 50 µL of Schiff base to column 1. Thereafter, 50 µL of Schiff bases from column 1 was transferred by multichannel pipette to columns 2–10, resulting in 50 µL Schiff bases per well. Column 11 contained 100 µL of diluted standardised inoculum, while Column 12 contained 100 µL of LB as a control to monitor sterility. Then, 50 µL of the microorganism suspension was then added to columns 1–10 and the control column 11. […]

Row | Structure (SMILES) | IC50 [1] [µM] | IC50 [2] [µM] | IC50 [3] [µM] | MBC [4] [µM] | MBC [5] [µM] | MBC [6] [µM] | MBC [7] [µM] | MFC ([8]; read-out: MFC A. niger) [µM] | MFC ([9]; read-out: MFC C. albicans) [µM] | IC50 [10] [µM] | IC50 [11] [µM] | melting point [°C] | other results
1 | Oc1cc(N=Cc2ccccc2O)n[nH]1 [Compound 2, 3-(((2-hydroxyphenyl)methylidene)amino)-1H-pyrazol-5-ol] | 390 ± 5 | 510 ± 5 | 410 ± 6 | 4.31 (≈ 0.876 µg/mL) | > 4.31 | 4.31 (≈ 0.876 µg/mL) | > 4.31 | > 4.31 | > 4.31 | 120 ± 51 | 91 ± 9 | 370 | 
2 | Oc1cc(N=Cc2ccccc2)n[nH]1 [Compound 3, 3-((phenylmethylidene)amino)-1H-pyrazol-5-ol] | 360 ± 5 | 450 ± 7 | 410 ± 8 | > 5.35 | > 5.35 | 2.67 (≈ 0.5 µg/mL) | > 5.35 | > 5.35 | > 5.35 | 560 ± 82 | 200 ± 74 | 266 | MIC [12]: 0.67 µM (≈ 0.125 µg/mL)
3 | O=[N+]([O-])c1ccc(C=Nc2ccc(O)cc2)cc1 [Compound 4, 4-(((4-nitrophenyl)methylidene)amino)phenol] | 290 ± 6 | 370 ± 6 | 370 ± 7 |  |  | 2.07 (≈ 0.501 µg/mL) |  |  |  | 1390 ± 91 | 1380 ± 17 | 202 | MBC ([4]; 24 h, * = no bactericidal effect at the evaluated concentration, n = 3): 4.31 µM (≈ 1.04 µg/mL); MBC ([5]; 24 h): > 4.31 µM; MBC ([7]; 24 h): > 4.31 µM; MFC ([8]; 24 h, read-out: MFC A. niger): > 4.31 µM; MFC ([9]; 24 h, read-out: MFC C. albicans): > 4.31 µM
4 | Oc1ccc(N=Cc2ccccc2O)cc1 [Compound 5, 4-(2-hydroxybenzylideneamino)phenol] | 260 ± 5 | 110 ± 5 | 320 ± 6 | > 4.69 |  |  | > 4.69 | > 4.69 | > 4.69 | 1380 ± 1250 |  |  | MBC ([5]; * = no bactericidal effect at the evaluated concentration, n = 3): 4.69 µM (≈ 1 µg/mL); MBC ([6]; n = 3): 4.69 µM (≈ 1 µg/mL)
5 | Oc1ccc(N=Cc2ccccc2)cc1 [Compound 6, 4-(benzylideneamino)phenol] | 380 ± 2 | 260 ± 6 | 380 ± 5 | > 5.07 | > 5.07 |  | > 5.07 | > 5.07 | > 5.07 | 1420 ± 1730 | 1410 ± 17 | 302 | MBC ([6]; n = 3): 2.54 µM (≈ 0.501 µg/mL)
6 | O=S(=O)(O)c1cc(O)c(N=Cc2ccccc2O)c2ccccc12 [Compound 8, 4-(2-hydroxybenzylideneamino)-3-hydroxynaphthalene-1-sulphonic acid] | 210 ± 5 | 140 ± 5 | 240 ± 17 | > 2.92 | > 2.92 | 1.46 (≈ 0.501 µg/mL) | > 2.92 | 1.46 (≈ 0.501 µg/mL) | 1.46 (≈ 0.501 µg/mL) | 500 ± 82 | 420 ± 34 | 296 | antibacterial activity (growth inhibition), S. typhi [7]: inhibited only the growth of S. typhi
7 | O=S(=O)(O)c1cc(O)c(N=Cc2ccccc2)c2ccccc12 [Compound 9, 4-(benzylideneamino)-3-hydroxynaphthalene-1-sulphonic acid] | 220 ± 6 | 50 ± 4 | 190 ± 11 | > 3.06 | > 3.06 | 3.06 (≈ 1 µg/mL) | > 3.06 |  |  | 660 ± 97 | 561 ± 42 | 246 | MFC ([8]; * = no fungicidal effect at the evaluated concentration, n = 3, read-out: MFC A. niger): 1.53 µM (≈ 0.501 µg/mL); MFC ([9]; * = no fungicidal effect at the evaluated concentration, n = 3, read-out: MFC C. albicans): 1.53 µM (≈ 0.501 µg/mL)
8 | O=C(O)c1cc(O)c(O)c(O)c1 [Compound 10, 3,4,5-trihydroxybenzoic acid, reference compound] | 420 ± 3 | 580 ± 7 | 460 ± 11 |  |  |  |  |  |  |  |  |  | 
9 | O=C1OC(C(O)CO)C(O)=C1O (stereo not drawn) [Compound 11, 5-(1,2-dihydroxyethyl)-3,4-dihydroxyfuran-2(5H)-one, reference compound] | 350 ± 5 | 530 ± 6 | 440 ± 7 |  |  |  |  |  |  |  |  |  | 
10 | O=c1c(O)c(-c2ccc(O)c(O)c2)oc2cc(O)cc(O)c12 [Compound 12, 2-(3,4-dihydroxyphenyl)-3,5,7-trihydroxy-4H-chromen-4-one, reference compound] | 240 ± 3 | 270 ± 8 | 270 ± 10 |  |  |  |  |  |  |  |  |  | 
